Measured values reported in ChEMBL document CHEMBL3739322, “Novel oxime-bearing coumarin derivatives act as potent Nrf2/ARE activators in vitro and in mouse model” (Eur J Med Chem, 2015).

Tested on: not listed separately
Assay: Antioxidant activity assessed as DPPH radical scavenging activity
Assay type: physicochemical
Conditions: not given

Compound	EC50
O=c1oc2ccccc2cc1O [3-HYDROXYCOUMARIN]	65.8 µM
O=c1ccc2cc(O)ccc2o1 [6-HYDROXYCOUMARIN]	> 400 µM
O=c1ccc2cc(OC/C(=N\O)c3ccccc3)ccc2o1	> 400 µM
CC(C)(C)c1cc(O)ccc1O [E319]	57.5 µM
O=c1oc2ccccc2cc1OC/C(=N\O)c1ccc(F)cc1	> 400 µM
O=c1ccc2ccc(O)cc2o1 [UMBELLIFERONE]	> 400 µM
O=c1cc(O)c2ccccc2o1 [4-HYDROXYCOUMARINS]	351 µM

Target: T1, Nuclear factor erythroid 2-related factor 2 (Homo sapiens) (UniProt Q16236)
T1 sequence (whole entry): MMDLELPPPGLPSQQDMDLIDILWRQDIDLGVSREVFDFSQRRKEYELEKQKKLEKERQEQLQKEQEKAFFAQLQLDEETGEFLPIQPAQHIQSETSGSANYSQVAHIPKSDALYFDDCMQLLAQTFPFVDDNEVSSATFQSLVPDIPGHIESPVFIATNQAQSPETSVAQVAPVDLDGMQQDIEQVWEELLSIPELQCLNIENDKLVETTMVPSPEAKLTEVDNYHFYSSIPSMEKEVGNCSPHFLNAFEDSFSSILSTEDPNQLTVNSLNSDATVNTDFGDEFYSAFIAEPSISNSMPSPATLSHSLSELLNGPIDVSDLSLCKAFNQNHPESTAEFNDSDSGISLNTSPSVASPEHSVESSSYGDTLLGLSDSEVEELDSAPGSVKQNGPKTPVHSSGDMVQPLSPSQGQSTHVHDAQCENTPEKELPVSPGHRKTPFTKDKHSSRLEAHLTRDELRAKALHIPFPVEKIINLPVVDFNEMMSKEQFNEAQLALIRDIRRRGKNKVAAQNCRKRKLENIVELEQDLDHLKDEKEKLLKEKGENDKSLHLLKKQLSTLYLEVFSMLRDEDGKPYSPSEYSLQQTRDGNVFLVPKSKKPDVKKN
Assay: Activation of Nrf2 in human HSC3-ARE9 cells assessed as increase of ARE-mediated Prx1 mRNA expression at 50 uM after 24 hrs by RT-PCR analysis relative to control
Assay type: cell-based
Conditions: not given

Compound	fold change (FC)
CC(C)(C)c1cc(O)ccc1O [E319]	1.1

Target: T1, Nuclear factor erythroid 2-related factor 2 (Homo sapiens)
Assay: Activation of Nrf2 in human HSC3-ARE9 cells assessed as increase of ARE-mediated luciferase expression at 50 uM after 24 hrs relative to control
Assay type: cell-based
Conditions: not given

Compound	fold change (FC)
O=C(COc1ccc2ccc(=O)oc2c1)Nc1ccc(F)cc1	1.16
C/C(COc1ccc2oc(=O)ccc2c1)=N\O	1.64
O=C(COc1cc(=O)oc2ccccc12)c1ccccc1	1.98
O=C(COc1ccc2ccc(=O)oc2c1)Nc1ccc2ccccc2c1	1.06
COc1ccc(C(=O)COc2ccc3oc(=O)ccc3c2)cc1	0.82
O=C(COc1cc2ccccc2oc1=O)Nc1ccc(-c2ccccc2)cc1	1.22
COc1ccc(NC(=O)COc2ccc3ccc(=O)oc3c2)cc1	0.98
O=c1oc2ccccc2cc1O [3-HYDROXYCOUMARIN]	0.94
COc1ccc(NC(=O)COc2ccc3oc(=O)ccc3c2)cc1	0.89
CC(=O)COc1ccc2oc(=O)ccc2c1	1.03
O=C(COc1ccc2oc(=O)ccc2c1)c1ccc(F)cc1	1.58
O=C(COc1cc2ccccc2oc1=O)c1ccccc1	1.72
O=c1cc(OC/C(=N\O)c2ccccc2)c2ccccc2o1	1.35
COc1ccc(C(=O)COc2cc(=O)oc3ccccc23)cc1	1.36
O=C(COc1ccc2oc(=O)ccc2c1)c1ccc(-c2ccccc2)cc1	0.85
O=C(COc1ccc2oc(=O)ccc2c1)Nc1ccccc1	2.08
O=C(COc1cc2ccccc2oc1=O)c1ccc(-c2ccccc2)cc1	0.98
O=c1cc(OC/C(=N\O)c2ccc(F)cc2)c2ccccc2o1	1.67
O=c1cc(OC/C(=N\O)c2ccc3ccccc3c2)c2ccccc2o1	1.43
O=C(COc1ccc2ccc(=O)oc2c1)c1ccccc1	1.93
COc1ccc(/C(COc2cc3ccccc3oc2=O)=N/O)cc1	1.49
O=C(COc1ccc2ccc(=O)oc2c1)Nc1ccccc1	2.27
O=C(COc1ccc2oc(=O)ccc2c1)Nc1ccc(F)cc1	0.95
O=c1oc2ccccc2cc1OC/C(=N\O)c1ccc(-c2ccccc2)cc1	1.44

Compound	fold change (FC)
O=c1oc2ccccc2cc1OC/C(=N\O)c1ccc2ccccc2c1	1.31
O=c1ccc2cc(O)ccc2o1 [6-HYDROXYCOUMARIN]	0.99
O=c1ccc2ccc(OC/C(=N\O)c3ccccc3)cc2o1	2.16
COc1ccc(C(=O)COc2cc3ccccc3oc2=O)cc1	1.54
O=c1ccc2ccc(OC/C(=N\O)c3ccc(F)cc3)cc2o1	1.32
COc1ccc(NC(=O)COc2cc(=O)oc3ccccc23)cc1	1.34
O=C(COc1ccc2oc(=O)ccc2c1)c1ccc2ccccc2c1	0.61
O=c1ccc2cc(OC/C(=N\O)c3ccc4ccccc4c3)ccc2o1	1.46
O=C(COc1ccc2oc(=O)ccc2c1)Nc1ccc(-c2ccccc2)cc1	0.95
O=c1ccc2ccc(OC/C(=N\O)c3ccc(-c4ccccc4)cc3)cc2o1	0.9
CC(=O)COc1cc2ccccc2oc1=O	0.92
COc1ccc(C(=O)COc2ccc3ccc(=O)oc3c2)cc1	1.07
O=c1ccc2cc(OC/C(=N\O)c3ccc(F)cc3)ccc2o1	2.32
O=c1ccc2cc(OC/C(=N\O)c3ccccc3)ccc2o1	3.02
O=C(COc1cc2ccccc2oc1=O)c1ccc(F)cc1	1.64
C/C(COc1cc(=O)oc2ccccc12)=N\O	1.37
CC(C)(C)c1cc(O)ccc1O [E319]	2.01
C/C(COc1ccc2ccc(=O)oc2c1)=N\O	1.68
COc1ccc(/C(COc2cc(=O)oc3ccccc23)=N/O)cc1	1.76
O=c1oc2ccccc2cc1OC/C(=N\O)c1ccc(F)cc1	3.25
O=c1ccc2cc(OC/C(=N\O)c3ccc(-c4ccccc4)cc3)ccc2o1	1.5
C/C(COc1cc2ccccc2oc1=O)=N\O	1.63
O=C(COc1ccc2ccc(=O)oc2c1)c1ccc(-c2ccccc2)cc1	0.85
O=c1cc(OC/C(=N\O)c2ccc(-c3ccccc3)cc2)c2ccccc2o1	1.32

Compound	fold change (FC)
CC(=O)COc1ccc2ccc(=O)oc2c1	1.09
O=c1ccc2ccc(O)cc2o1 [UMBELLIFERONE]	0.98
CC(=O)COc1cc(=O)oc2ccccc12	0.79
O=C(COc1cc(=O)oc2ccccc12)c1ccc2ccccc2c1	1.52
COc1ccc(/C(COc2ccc3ccc(=O)oc3c2)=N/O)cc1	1.28
O=C(COc1cc2ccccc2oc1=O)c1ccc2ccccc2c1	0.98
O=C(COc1ccc2ccc(=O)oc2c1)c1ccc2ccccc2c1	0.17
O=C(COc1ccc2ccc(=O)oc2c1)Nc1ccc(-c2ccccc2)cc1	1.09
O=c1ccc2ccc(OC/C(=N\O)c3ccc4ccccc4c3)cc2o1	1.04
O=C(COc1cc(=O)oc2ccccc12)c1ccc(-c2ccccc2)cc1	0.42
O=C(COc1cc(=O)oc2ccccc12)c1ccc(F)cc1	1.26
O=c1cc(O)c2ccccc2o1 [4-HYDROXYCOUMARINS]	0.84
O=C(COc1cc2ccccc2oc1=O)Nc1ccccc1	2.51
O=C(COc1cc2ccccc2oc1=O)Nc1ccc2ccccc2c1	1.13
O=C(COc1cc(=O)oc2ccccc12)Nc1ccc(-c2ccccc2)cc1	1.17
O=C(COc1cc(=O)oc2ccccc12)Nc1ccccc1	1.06
O=C(COc1cc(=O)oc2ccccc12)Nc1ccc(F)cc1	1.11
O=C(COc1cc2ccccc2oc1=O)Nc1ccc(F)cc1	1.34
O=C(COc1cc(=O)oc2ccccc12)Nc1ccc2ccccc2c1	1.37
COc1ccc(NC(=O)COc2cc3ccccc3oc2=O)cc1	0.95
COc1ccc(/C(COc2ccc3oc(=O)ccc3c2)=N/O)cc1	1.33
O=C(COc1ccc2oc(=O)ccc2c1)Nc1ccc2ccccc2c1	0.91
O=C(COc1ccc2oc(=O)ccc2c1)c1ccccc1	2.54
O=C(COc1ccc2ccc(=O)oc2c1)c1ccc(F)cc1	1.14

Target: T1, Nuclear factor erythroid 2-related factor 2 (Homo sapiens)
Assay: Activation of Nrf2 in human HSC3-ARE9 cells assessed as increase of ARE-mediated luciferase expression after 24 hrs
Assay type: cell-based
Conditions: not given

Compound	Activity
O=c1ccc2cc(OC/C(=N\O)c3ccccc3)ccc2o1	Dose-dependent effect
O=c1oc2ccccc2cc1OC/C(=N\O)c1ccc(F)cc1	Dose-dependent effect

Tested on: not listed separately
Assay: Cytotoxicity against human HSC3 cells after 24 hrs by MTT assay
Assay type: cell-based
Conditions: hsc-3, 24 h

Compound	Activity
O=c1ccc2cc(OC/C(=N\O)c3ccccc3)ccc2o1	Non-toxic
O=c1oc2ccccc2cc1OC/C(=N\O)c1ccc(F)cc1	Non-toxic

Target: T1, Nuclear factor erythroid 2-related factor 2 (Homo sapiens)
Assay: Activation of Nrf2 in human HSC3-ARE9 cells assessed as increase of ARE-mediated AKR1C1 mRNA expression at 50 uM after 24 hrs by RT-PCR analysis relative to control
Assay type: cell-based
Conditions: not given

Compound	fold change (FC)
CC(C)(C)c1cc(O)ccc1O [E319]	2.3

Target: T1, Nuclear factor erythroid 2-related factor 2 (Homo sapiens)
Assay: Activation of Nrf2 in human HSC3-ARE9 cells assessed as increase of ARE-mediated GCLC mRNA expression at 50 uM after 24 hrs by RT-PCR analysis relative to control
Assay type: cell-based
Conditions: not given

Compound	fold change (FC)
CC(C)(C)c1cc(O)ccc1O [E319]	2
